This note sets out measurements from PMC4678576, “Optimisation of a triazolopyridine based histone demethylase inhibitor yields a potent and selective KDM2A (FBXL11) inhibitor” (MedChemComm, 2014).

This data set in a line: Parallel artificial membrane permeation assay (PAMPA). The class given is in vitro ADME. To be noted: for Papp: PAMPA, range over pH 7.4, 6.2, 5.0, read-out: membrane permeability (PAMPA), range over the pH values tested.

With `O=C(O)c1ccnc(-c2cn([C@@H]3CCCN(C(=O)c4ccccc4)C3)nn2)c1` [Compound 35], the Papp is 0.41 to 1.9 ×10⁻⁶ cm/s, the “PAMPA Pe pH 5.0” value was 1.9 10^−6 cm s^−1, the “PAMPA Pe pH 6.2” value is 0.41 10^−6 cm s^−1 and the “PAMPA Pe pH 7.4” value was 0.69 10^−6 cm s^−1.

For the compound `COC(=O)c1ccnc(-c2cn([C@@H]3CCCN(C(=O)c4ccccc4)C3)nn2)c1` [Compound 37], the Papp lay within 45 to 56 ×10⁻⁶ cm/s, the “PAMPA Pe pH 5.0” value was 56 10^−6 cm s^−1, the “PAMPA Pe pH 6.2” value is on record as 45 10^−6 cm s^−1 and the “PAMPA Pe pH 7.4” value is on record as 52 10^−6 cm s^−1.
